Our source for the EC50 values is patent US8877707B2, “Inhibitors of HCV NS5A” (Presidio Pharmaceuticals, Inc., priority 2010, dated 2014).

For this test, the system named is HCV genotype 1b replicon in Huh 7 cells. Put plainly: HCV replicon assay (1b_Huh-Luc/Neo-ET cell line, luciferase readout). It is filed as cell-based. To be noted: Hepatitis C virus; Table 2; genotype 1b replicon, Huh 7 cells, 72 h, luciferase; read-out: Inhibition of HCV genotype 1b. Put shortly:
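Replicon level was read as luciferase signal after 72 h compound exposure, triplicate wells, starting the day after cells were plated. Cell line: 1b_Huh-Luc/Neo-ET. Values normalised to control as percent, and EC50 fitted with a variable-slope sigmoid; determinations repeated.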
Regarding `COC(=O)N[C@H](C(=O)N1CCC[C@H]1c1ncc(-c2ccc3cc(-c4ccc(-c5cnc([C@@H]6CCCN6C(=O)[C@@H](NC(=O)OC)C6CCOCC6)[nH]5)nn4)ccc3c2)[nH]1)C1CCOCC1` [compound 314], the EC50 was less than 1 nM.

As to `COC(=O)N[C@H](C(=O)N1CCC[C@H]1c1ncc(-c2ccc3cc(-c4ccc(-c5cnc([C@@H]6CCCN6C(=O)[C@H](NC(=O)OC)c6ccccc6)[nH]5)nn4)ccc3c2)[nH]1)C1CCOCC1` [compound 315], the EC50 is less than 1 nM.

Turning to `COC[C@H](NC(=O)OC)C(=O)N1CCC[C@H]1c1ncc(-c2ccc3cc(-c4ccc(-c5cnc([C@@H]6CCCN6C(=O)[C@H](NC(=O)OC)c6ccccc6)[nH]5)cc4)ccc3c2)[nH]1` [compound 316], the EC50 is less than 1 nM.

For `COC(=O)N[C@@H](C)C(=O)N1CCC[C@H]1c1ncc(-c2ccc3cc(-c4ccc(-c5cnc([C@@H]6CCCN6C(=O)[C@H](NC(=O)OC)c6ccccc6)[nH]5)cc4)ccc3c2)[nH]1` [compound 319], the EC50 was less than 1 nM.

Turning to `COC(=O)NC(C(=O)N1CCC[C@H]1c1ncc(-c2ccc3cc(-c4ccc(-c5cnc([C@@H]6CCCN6C(=O)[C@H](NC(=O)OC)c6ccccc6)[nH]5)cc4)ccc3c2)[nH]1)[C@@H](C)O` (some centres unmarked) [compound 320], the EC50 is less than 1 nM.

As to `COC(=O)N[C@@H](C)C(=O)N1CCC[C@H]1c1ncc(-c2ccc3cc(-c4ccc(-c5cnc([C@@H]6COCCN6C(=O)[C@H](NC(=O)OC)c6ccccc6)[nH]5)cc4)ccc3c2)[nH]1` [compound 322], the EC50 is less than 1 nM.

With `COC(=O)N[C@H](C(=O)N1CCC[C@H]1c1ncc(-c2ccc3cc(-c4ccc(-c5cnc([C@@H]6COCCN6C(=O)[C@H](NC(=O)OC)c6ccccc6)[nH]5)cc4)ccc3c2)[nH]1)[C@@H](C)OC` [compound 323], the EC50 is less than 1 nM.

Consider `COC(=O)N[C@H](C(=O)N1CCC[C@H]1c1ncc(-c2ccc3cc(-c4ccc(-c5cnc([C@@H]6COCCN6C(=O)[C@H](NC(=O)OC)c6ccccc6)[nH]5)cc4)ccc3c2)[nH]1)[C@@H](C)O` [compound 324], for which the EC50 is less than 1 nM.

For the compound `COC(=O)N[C@@H](C)C(=O)N1CCOC[C@H]1c1ncc(-c2ccc3cc(-c4ccc(-c5cnc([C@@H]6CCCN6C(=O)[C@H](NC(=O)OC)c6ccccc6)[nH]5)cc4)ccc3c2)[nH]1` [compound 326], the EC50 was less than 1 nM.

As to `COC(=O)N[C@H](C(=O)N1CCOC[C@H]1c1ncc(-c2ccc3cc(-c4ccc(-c5cnc([C@@H]6CCCN6C(=O)[C@H](NC(=O)OC)c6ccccc6)[nH]5)cc4)ccc3c2)[nH]1)[C@@H](C)OC` [compound 327], the EC50 is less than 1 nM.

On to `COC(=O)N[C@H](C(=O)N[C@@H](C)c1ncc(-c2ccc3cc(-c4ccc(-c5cnc([C@@H]6CCCN6C(=O)[C@H](NC(=O)OC)c6ccccc6)[nH]5)cc4)ccc3c2)[nH]1)[C@@H](C)OC` [compound 329], for which the EC50 is less than 1 nM.

For `COC(=O)N[C@H](C(=O)N1CCC[C@H]1c1ncc(-c2ccc3cc(-c4ccc(-c5cnc([C@@H]6CCCN6C(=O)[C@H](NC(=O)OC)c6ccccc6)[nH]5)cn4)ccc3c2)[nH]1)C1CCOCC1` [compound 337], the EC50 was less than 1 nM.

Turning to `COC(=O)N[C@@H](C)C(=O)N1CCC[C@H]1c1ncc(-c2ccc3cc(-c4ccc(-c5cnc([C@@H]6CCCN6C(=O)[C@H](NC(=O)OC)c6ccccc6)[nH]5)cn4)ccc3c2)[nH]1` [compound 338], the EC50 is less than 1 nM.

Consider `CC[C@H](C)C(NC(=O)OC)C(=O)N1CCC[C@H]1c1nc2ccc(-c3ccc4cc(-c5cnc([C@@H]6CCCN6C(=O)[C@@H](NC(=O)OC)[C@@H](C)CC)[nH]5)ccc4c3)cc2[nH]1` (some centres unmarked) [compound 346], for which the EC50 is less than 1 nM.

Consider `COC(=O)N[C@H](C(=O)N1CCC[C@H]1c1ncc(-c2ccc3cc(-c4ccc5nc([C@@H]6CCCN6C(=O)[C@@H](NC(=O)OC)C6CCCCC6)[nH]c5c4)ccc3c2)[nH]1)C1CCCCC1` [compound 348], for which the EC50 was less than 1 nM.

For `COC(=O)N[C@H](C(=O)N1CCC[C@H]1c1ncc(-c2ccc3cc(-c4ccc5nc([C@@H]6COCCN6C(=O)[C@@H](NC(=O)OC)C6CCCC6)[nH]c5c4)ccc3c2)[nH]1)C1CCCC1` [compound 350], the EC50 is less than 1 nM.

For the compound `CCC(CC)[C@H](NC(=O)OC)C(=O)N1CCC[C@H]1c1ncc(-c2ccc3cc(-c4ccc5nc([C@@H]6COCCN6C(=O)[C@@H](NC(=O)OC)C(CC)CC)[nH]c5c4)ccc3c2)[nH]1` [compound 351], the EC50 was less than 1 nM.

With `CC[C@@H](C)[C@H](NC(=O)OC)C(=O)N1CCC[C@H]1c1ncc(-c2ccc3cc(-c4ccc5nc([C@@H]6COCCN6C(=O)[C@@H](NC(=O)OC)[C@H](C)CC)[nH]c5c4)ccc3c2)[nH]1` [compound 352], the EC50 was less than 1 nM.

Turning to `CC[C@H](C)[C@H](NC(=O)OC)C(=O)N1CCC[C@H]1c1ncc(-c2ccc3cc(-c4ccc5nc([C@@H]6COCCN6C(=O)[C@@H](NC(=O)OC)[C@@H](C)CC)[nH]c5c4)ccc3c2)[nH]1` [compound 353], the EC50 is less than 1 nM.

For the compound `COC(=O)N[C@H](C(=O)N1CCC[C@H]1c1ncc(-c2ccc3cc(-c4ccc5nc([C@@H]6COCCN6C(=O)[C@@H](NC(=O)OC)[C@@H](C)OC)[nH]c5c4)ccc3c2)[nH]1)[C@@H](C)OC` [compound 354], the EC50 was less than 1 nM.

Turning to `COC(=O)N[C@H](C(=O)N1CCC[C@H]1c1ncc(-c2ccc3cc(-c4ccc5nc([C@@H]6COCCN6C(=O)[C@@H](NC(=O)OC)[C@@H](C)O)[nH]c5c4)ccc3c2)[nH]1)[C@@H](C)O` [compound 355], the EC50 was less than 1 nM.

With `COC(=O)N[C@H](C(=O)N1CCC[C@H]1c1ncc(-c2ccc3cc(-c4ccc5nc([C@@H]6COCCN6C(=O)[C@@H](NC(=O)OC)C6CC6)[nH]c5c4)ccc3c2)[nH]1)C1CC1` [compound 356], the EC50 was less than 1 nM.

Take `CC[C@H](NC(=O)OC)C(=O)N1CCC[C@H]1c1ncc(-c2ccc3cc(-c4ccc5nc([C@@H]6COCCN6C(=O)[C@H](CC)NC(=O)OC)[nH]c5c4)ccc3c2)[nH]1` [compound 357]: the EC50 was less than 1 nM.

As to `COC(=O)N[C@@H](C)C(=O)N1CCC[C@H]1c1ncc(-c2ccc3cc(-c4ccc5nc([C@@H]6COCCN6C(=O)[C@H](C)NC(=O)OC)[nH]c5c4)ccc3c2)[nH]1` [compound 359], the EC50 is less than 1 nM.

For `COC(=O)N[C@H](C(=O)N1CCC[C@H]1c1ncc(-c2ccc3cc(-c4ccc5nc([C@@H]6COCCN6C(=O)[C@@H](NC(=O)OC)C6CCCCC6)[nH]c5c4)ccc3c2)[nH]1)C1CCCCC1` [compound 361], the EC50 was less than 1 nM.

As to `COC(=O)N[C@H](C(=O)N1CCC[C@H]1c1ncc(-c2ccc3cc(-c4ccc5nc([C@@H]6CCCN6C(=O)[C@@H](NC(=O)OC)C6CCCC6)[nH]c5c4)ncc3c2)[nH]1)C1CCCC1` [compound 372], the EC50 is less than 1 nM.

As for `CC[C@H](C)[C@H](NC(=O)OC)C(=O)N1CCC[C@H]1c1ncc(-c2ccc3cc(-c4ccc5nc([C@@H]6CCCN6C(=O)[C@@H](NC(=O)OC)[C@@H](C)CC)[nH]c5c4)ncc3c2)[nH]1` [compound 374], the EC50 is less than 1 nM.

With `CC[C@@H](C)[C@H](NC(=O)OC)C(=O)N1CCC[C@H]1c1ncc(-c2ccc3cc(-c4ccc5nc([C@@H]6CCCN6C(=O)[C@@H](NC(=O)OC)[C@H](C)CC)[nH]c5c4)ncc3c2)[nH]1` [compound 375], the EC50 was less than 1 nM.

`COC(=O)N[C@H](C(=O)N1CCC[C@H]1c1ncc(-c2ccc3cc(-c4ccc5nc([C@@H]6CCCN6C(=O)[C@@H](NC(=O)OC)C6CC6)[nH]c5c4)ncc3c2)[nH]1)C1CC1` [compound 376]: the EC50 was less than 1 nM.
